Measured values as given in patent US9051279B2, “Substituted isoquinolinones and quinazolinones” (Novartis AG, priority 2009, dated 2015).

Test: Solubility and stability of crystalline sulphate salt form I compared to free base amorphous form
Format: physicochemical
Conditions: compared to the free base amorphous form

## COc1cc2c(cc1OC(C)C)[C@H](c1ccc(Cl)cc1)N(c1ccc(N(C)C[C@H]3CC[C@H](N4CCN(C)C(=O)C4)CC3)cc1)C(=O)C2.O=S(=O)(O)O [(S)-1-(4-Chloro-phenyl)-7-isopropoxy-6-methoxy-2-(4-{methyl-[4-(4-methyl-3-oxo-piperazin-1-yl)-trans-cyclohexylmethyl]-amino}-phenyl)-1,4-dihydro-2H-isoquinolin-3-one sulphate salt]
  solubility: improvements
  stability: improvements
